Test results taken from ChEMBL document CHEMBL3621049, “Imidazole derivatives show anticancer potential by inducing apoptosis and cellular senescence” (2014).
Active and inactive are the calls of the source.

Key:
Assay type in all cases: functional, cell-based
CCRF-CEM = test: Growth inhibition of human CCRF-CEM cells at 10 uM by sulforhodamine B assay
HL-60(TB) = test: Growth inhibition of human HL-60(TB) cells at 10 uM by sulforhodamine B assay
K562 = test: Growth inhibition of human K562 cells at 10 uM by sulforhodamine B assay
MOLT-4 = test: Growth inhibition of human MOLT4 cells at 10 uM by sulforhodamine B assay
RPMI-8226 = test: Growth inhibition of human RPMI8226 cells at 10 uM by sulforhodamine B assay
SR = test: Growth inhibition of human SR cells at 10 uM by sulforhodamine B assay
A549 = test: Growth inhibition of human A549/ATCC cells at 10 uM by sulforhodamine B assay
HOP-62 = test: Growth inhibition of human HOP62 cells at 10 uM by sulforhodamine B assay
NCI-H226 = test: Growth inhibition of human NCI-H226 cells at 10 uM by sulforhodamine B assay
NCI-H23 = test: Growth inhibition of human NCI-H23 cells at 10 uM by sulforhodamine B assay
NCI-H322M = test: Growth inhibition of human NCI-H322M cells at 10 uM by sulforhodamine B assay
NCI-H460 = test: Growth inhibition of human NCI-H460 cells at 10 uM by sulforhodamine B assay
NCI-H522 = test: Growth inhibition of human NCI-H522 cells at 10 uM by sulforhodamine B assay
COLO 205 = test: Growth inhibition of human COLO205 cells at 10 uM by sulforhodamine B assay
HCT-116 = test: Growth inhibition of human HCT116 cells at 10 uM by sulforhodamine B assay
HCT-15 = test: Growth inhibition of human HCT15 cells at 10 uM by sulforhodamine B assay
HT-29 = test: Growth inhibition of human HT-29 cells at 10 uM by sulforhodamine B assay
KM12 = test: Growth inhibition of human KM12 cells at 10 uM by sulforhodamine B assay
SW-620 = test: Growth inhibition of human SW620 cells at 10 uM by sulforhodamine B assay
SF-268 = test: Growth inhibition of human SF268 cells at 10 uM by sulforhodamine B assay
SF-295 = test: Growth inhibition of human SF295 cells at 10 uM by sulforhodamine B assay
SF-539 = test: Growth inhibition of human SF539 cells at 10 uM by sulforhodamine B assay
SNB-19 = test: Growth inhibition of human SNB19 cells at 10 uM by sulforhodamine B assay
SNB-75 = test: Growth inhibition of human SNB75 cells at 10 uM by sulforhodamine B assay
U-251 = test: Growth inhibition of human U251 cells at 10 uM by sulforhodamine B assay
LOX IMVI = test: Growth inhibition of human LOXIMVI cells at 10 uM by sulforhodamine B assay
M14 = test: Growth inhibition of human M14 cells at 10 uM by sulforhodamine B assay
MDA-MB-435 = test: Growth inhibition of human MDA-MB-435 cells at 10 uM by sulforhodamine B assay
SK-MEL-2 = test: Growth inhibition of human SK-MEL-2 cells at 10 uM by sulforhodamine B assay
SK-MEL-28 = test: Growth inhibition of human SK-MEL-28 cells at 10 uM by sulforhodamine B assay
SK-MEL-5 = test: Growth inhibition of human SK-MEL-5 cells at 10 uM by sulforhodamine B assay
UACC-257 = test: Growth inhibition of human UACC257 cells at 10 uM by sulforhodamine B assay
IGROV-1 = test: Growth inhibition of human IGROV1 cells at 10 uM by sulforhodamine B assay
OVCAR-3 = test: Growth inhibition of human OVCAR3 cells at 10 uM by sulforhodamine B assay
OVCAR-4 = test: Growth inhibition of human OVCAR4 cells at 10 uM by sulforhodamine B assay
OVCAR-5 = test: Growth inhibition of human OVCAR5 cells at 10 uM by sulforhodamine B assay
OVCAR-8 = test: Growth inhibition of human OVCAR8 cells at 10 uM by sulforhodamine B assay
NCI/ADR-RES = test: Growth inhibition of human NCI/ADR-RES cells at 10 uM by sulforhodamine B assay
SK-OV-3 = test: Growth inhibition of human SKOV3 cells at 10 uM by sulforhodamine B assay
786-0 = test: Growth inhibition of human 786-0 cells at 10 uM by sulforhodamine B assay
A498 = test: Growth inhibition of human A498 cells at 10 uM by sulforhodamine B assay
ACHN = test: Growth inhibition of human ACHN cells at 10 uM by sulforhodamine B assay
CAKI-1 = test: Growth inhibition of human Caki1 cells at 10 uM by sulforhodamine B assay
SN12C = test: Growth inhibition of human SN12C cells at 10 uM by sulforhodamine B assay
UO-31 = test: Growth inhibition of human UO31 cells at 10 uM by sulforhodamine B assay
PC-3 = test: Growth inhibition of human PC3 cells at 10 uM by sulforhodamine B assay
DU-145 = test: Growth inhibition of human DU145 cells at 10 uM by sulforhodamine B assay
MCF7 = test: Growth inhibition of human MCF7 cells at 10 uM by sulforhodamine B assay
MDA-MB-231 = test: Growth inhibition of human MDA-MB-231 cells at 10 uM by sulforhodamine B assay
Hs-578T = test: Growth inhibition of human Hs 578T cells at 10 uM by sulforhodamine B assay
BT-549 = test: Growth inhibition of human BT549 cells at 10 uM by sulforhodamine B assay
T47D = test: Growth inhibition of human T47D cells at 10 uM by sulforhodamine B assay
MDA-MB-468 = test: Growth inhibition of human MDA-MB-468 cells at 10 uM by sulforhodamine B assay
TK-10 = test: Growth inhibition of human TK10 cells at 10 uM by sulforhodamine B assay
UACC-62 = test: Growth inhibition of human UACC62 cells at 10 uM by sulforhodamine B assay
HOP-92 = test: Growth inhibition of human HOP92 cells at 10 uM by sulforhodamine B assay
Malme-3M = test: Growth inhibition of human MALME-3M cells at 10 uM by sulforhodamine B assay
HCC 2998 = test: Growth inhibition of human HCC2998 cells at 10 uM by sulforhodamine B assay
RXF 393 = test: Growth inhibition of human RXF393 cells at 10 uM by sulforhodamine B assay

Measured: growth inhibition (GI)

C#CCn1c(-c2ccc(OC)c(OC3CCCC3)c2)nc(-c2ccccc2)c1-c1ccccc1
active: CCRF-CEM | HL-60(TB) | K562 | MOLT-4 | RPMI-8226 | SR | A549 | HOP-62 | NCI-H226 | NCI-H23 | NCI-H322M | NCI-H460 | NCI-H522 | COLO 205 | HCT-116 | HCT-15 | HT-29 | KM12 | SW-620 | SF-268 | SF-295 | SF-539 | SNB-19 | SNB-75 | U-251 | LOX IMVI | M14 | MDA-MB-435 | SK-MEL-2 | SK-MEL-28 | SK-MEL-5 | UACC-257 | IGROV-1 | OVCAR-3 | OVCAR-4 | OVCAR-5 | OVCAR-8 | NCI/ADR-RES | SK-OV-3 | 786-0 | A498 | ACHN | CAKI-1 | SN12C | UO-31 | PC-3 | DU-145 | MCF7 | MDA-MB-231 | Hs-578T | BT-549 | T47D | MDA-MB-468 | TK-10 | UACC-62 | HOP-92 | Malme-3M | HCC 2998 | RXF 393

COc1cc(-c2nc(-c3ccccc3)c(-c3ccccc3)[nH]2)ccc1OC1CCCC1
active: CCRF-CEM | HL-60(TB) | K562 | MOLT-4 | RPMI-8226 | SR | A549 | HOP-62 | NCI-H226 | NCI-H23 | NCI-H322M | NCI-H460 | NCI-H522 | COLO 205 | HCT-116 | HCT-15 | HT-29 | KM12 | SW-620 | SF-268 | SF-295 | SF-539 | SNB-19 | SNB-75 | U-251 | LOX IMVI | M14 | MDA-MB-435 | SK-MEL-2 | SK-MEL-28 | SK-MEL-5 | UACC-257 | IGROV-1 | OVCAR-3 | OVCAR-4 | OVCAR-5 | OVCAR-8 | NCI/ADR-RES | SK-OV-3 | 786-0 | A498 | ACHN | CAKI-1 | SN12C | UO-31 | PC-3 | DU-145 | MCF7 | MDA-MB-231 | Hs-578T | BT-549 | T47D | MDA-MB-468 | TK-10 | UACC-62 | HOP-92 | Malme-3M | HCC 2998 | RXF 393
